Results: US20250312408A1, “NAP FOR SEX-SPECIFIC TREATMENT OF DISEASES” (RAMOT AT TEL-AVIV UNIVERSITY LTD., priority 2021, published 2025)
Read-outs that look alike come from different tables or passages of the source.

What was measured:
[1] = test system: subjects with schizophrenia; conditions: cited from earlier work; for UPSA score vs placebo (Javitt et al.): 5 mg daily dose; for UPSA between-group effect size (d): 12 weeks, men and women mixed (Javitt et al.)
PSP patients [2] = conditions: cited from earlier work; for PSP trial outcome, sexes not separated (Boxer et al.): 30 mg twice daily, 52 weeks, whole population
[3] = test system: subjects suffering from amnestic mild cognitive impairment (aMCI); test: aMCI clinical trial, CANTAB Delayed Match-to-Sample (DMTS) test, men and women analysed separately; format: in vivo, human; conditions: for effect of treatment on aMCI symptoms: males, 30 mg/day; for DMTS change vs placebo, Student's t test: men only
Description: The subject's task is to select the pattern that matches the original sample, here depicted after a 12 s interval. Thus, subjects suffering from aMCI were treated with either 5 mg daily or 15 mg twice daily (BID) by intranasal davunetide administration (1 or three puffs of the same strength davunetide solution). Treatment was for 12 weeks and testing was at baseline and every four weeks, including also 4 weeks after cessation of treatment. When analyzing the data, we separated here men and women for the first time as outlined below. […] We further conclude that much higher dose are required, especially in females.

[4] = test system: subjects suffering from amnestic mild cognitive impairment (aMCI); conditions: sexes not separated; cited from earlier work
PSP patients [5] = test: Phase 2/3 davunetide vs placebo trial in PSP, re-evaluated separating males and females; format: in vivo, human
Description: In this example we used results of a clinical trial performed as described in Boxer et al. Shortly, in a double blind, parallel group, phase 2/3 trial, participants were randomly assigned with permuted blocks in a 1:1 ratio to davunetide (NAP, having amino acid sequence […] set forth as SEQ ID NO: 1, 30 mg twice daily, intranasally) or placebo for 52 weeks at 48 centers in Australia, Canada, France, Germany, the UK, and the USA. Participants met the modified Neuroprotection and Natural History in Parkinson Plus Syndrome study criteria for PSP. Primary endpoints were the change from baseline in PSP Rating Scale (PSPRS, 28 items, 6 categories, 0=normal, 100=most disability) and Schwab and England Activities of Daily Living scale (SEADL, 11-point rating scale, 0=vegetative, 100%/=completely independent, 10% increments) at up to 52 weeks. Data collection was at week 0, 6, 13, 26, 39 and 52. All participants and study personnel were masked to treatment assignment. Analysis was by intention to treat. The trial is registered with Clinicaltrials.gov, number NCT01110720. 313 participants were randomly assigned to davunetide (n=157) or to placebo (n=156), and 241 (77%) completed the study (118 and […] in the davunetide and placebo groups, respectively). A secondary outcome was brain ventricular volume as measured with boundary shift integral analysis of T1-weighted magnetic resonance imaging (MRI) scans, mostly collected at week 0 and 52. At the same time, selected patients were also subjected to lumbar puncture and assessment of Tau content and Tau hyperphosphorylation in the cerebrospinal fluid (CSF).
To further understand disease progression, sex/age/baseline differences and drug influence, we re-evaluated study results, separating males and females, and assessing the primary and secondary endpoints. In this respect, we further assessed individually the 6 disability domains of the PSPRS, namely: daily activities (by history, seven items with a total maximum score of 24), behavior (mentation, emotional, interference with activity of daily living, maximum score of 16), bulbar (speech and swallowing, maximal score of 8), ocular motor (eye and eyelid activity, 16 points), limb motor (fine motor skills including tremor, 16 points) and gait/midline (gross motor skills, 20 points) https://www.physio-pedia.com/Progressive_Supranuclear_Palsy_Rating_Scale_(PSP-RS).
Statistical considerations: To include the ventricle volumetric measures, the cohort was composed of female and male PSP patients treated with davunetide or placebo (sample sizes for sex-treatment groups at 52 weeks of treatment: 48-55), outcome variables included ventricular volume (will be referred to as volume), PSPRS and SEADL assessed at study initiation and follow up to 52 weeks after twice daily treatment.
Data analysis was performed using Graph Pad Prism 7.0 software (see FIGS. 1 and 4). Other statistical tests and visualizations were made in R version 4.2.1 (2022-06-23) with the base library, ggplot2 and ggplot2 extension packages. Correlation plots statistics (FIGS. 2, 3 and 5) were computed using the standard Pearson method. The volume change (from FIG. 3) is the difference between the baseline and week-52 measurements. PSPRS, SEADL and ventricular volume in figures (FIG. 5) are represented by differences between the baseline and week-52 measurements, as a percentage of the baseline measurement. FIGS. 6 and 7 give the absolute changes overtime, due to the non-normal distribution of most parameters, statistical significance was measured using the Wilcoxon test. Only extreme values (defined as 3*IQR deviation from the penultimate top/bottom quantiles), were removed from the final calculations. There were only 11 observations that were considered extreme and their influence on our results was insignificant. FIG. 8 representing the geriatric depression scale measure (GDS) was prepared using excel.

[6] = test system: subjects with schizophrenia; test: Schizophrenia clinical trial, UCSD Performance-based Skills Assessment (UPSA), analysed separately for males and females; format: in vivo, human
Description: Briefly, sixty-three subjects with schizophrenia received davunetide at one of two different doses (5, 30 mg/day) or placebo for 12 weeks in a multicenter, double-blind, parallel-group randomized clinical trial. The MATRICS Consensus Cognitive Battery (MCCB) assessed cognitive effects. The UCSD Performance-based Skills Assessment (UPSA) with maximal score of 100 and the Schizophrenia Cognition Rating Scale (SCoRS) assessed functional capacity. Subjects continued their current antipsychotic treatment during the trial. For UPSA, there was a significant main effect of treatment across study arms (p=0.048). Between-group effect size (d) values were 0.74 and 0.48, favoring the 5 and 30 mg doses, respectively.
Considering the results obtained for PSP and the involvement of ADNP in both diseases, we analyzed the data separately for males and females with 7-16 subjects per group. […] All in all, the 5 mg daily dose was beneficial for women as detected after 6 and 12 weeks of treatment.

Hace1 = test: Hippocampal RNA sequencing of Adnp mutated (HTR (Tyr)) mice; format: in vivo
Description: In this model, gait deficits were accentuated in females, and ameliorated by NAP treatment. We discovered a surprising mirror imaging in NAP peptide (davunetide) brain (hippocampus) action in the treated mice as a dependence on mice sex. […] Hace1 is associated with ataxia and Huntington disease and is also involved in depression and Alzheimer's disease. NAP protection (FIG. 11) further attests to sex-dependent treatments of the diseases associated or mediated with Hace1.

[7] = test system: Adnp mutated (HTR (Tyr)) mice; conditions: deficits accentuated in females (Karmon et al.); cited from earlier work
[8] = males, from week 26 on, 30 mg twice daily
[9] = woman cohort, very few individuals, exploratory

For `CC[C@H](C)[C@H](NC(=O)[C@H](CO)NC(=O)[C@@H](NC(=O)[C@@H]1CCCN1C(=O)[C@H](C)NC(=O)[C@@H](N)CC(N)=O)C(C)C)C(=O)N1CCC[C@H]1C(=O)N[C@@H](CCC(N)=O)C(=O)O` [davunetide], the “UPSA score vs placebo (Javitt et al.)” value ([1]; sexes mixed) is listed as “significantly more effective”, the “UPSA score vs placebo (Javitt et al.)” value ([1]; sexes mixed, listed as NAP) is listed as “significantly higher” and the “UPSA between-group effect size (d)” value ([1]; 5 mg dose) is listed as 0.74. For the same molecule, the “UPSA score vs 5 mg daily dose and placebo (Javitt et al.)” value ([1]; 30 mg (15 mg twice daily), sexes mixed) was “insignificantly different”, the “UPSA between-group effect size (d)” value ([1]; 30 mg dose) was 0.48 and the “daily living activities in schizophrenia patients (Javitt et al.)” value ([1]; sexes mixed) was “protection of daily living activities”. For the same molecule, the “PSP trial outcome, sexes not separated (Boxer et al.)” value (PSP patients [2]) was “did not meet its endpoints”, the “PSP trial outcome, sexes not separated (Boxer et al.)” value (PSP patients [2]; listed as Davunetide) was “not an effective treatment” and the “safety in the PSP trial (Boxer et al.)” value (PSP patients [2]; in vivo) was “showing safety”. For the same molecule, the “effect of treatment on aMCI symptoms” value ([3]; listed as NAP) was “significant improvement”, the “effect of treatment on aMCI symptoms” value ([3]; listed as NAP peptide) was “statistically significant effect” and the “DMTS change vs placebo, Student's t test” value ([3]; test week 8) was “significant difference”. For the same molecule, the “DMTS change vs placebo, Student's t test” value ([3]; week 4 and 16) was “trending”, the “cognitive score in aMCI (Morimoto et al.)” value [4] was “cognitive score enhancement” and the “CGIds (Clinical Global Impression of Disease Severity)” value (PSP patients [5]; davunetide-treated males, P=0.013) was “deteriorated”. For the same molecule, the “adverse effects on all other PSPRS domains” value (PSP patients [5]; females) was “no adverse effects”, the “ventricular volume increase correlating with baseline ventricular volume” value (PSP patients [5]; females, 30 mg twice daily intranasally, 52 weeks) was “complete protection” and the “PSPRS change vs placebo” value (PSP patients [5]; females, 52 weeks, 30 mg twice daily) was “trended toward significant improvement”. For the same molecule, the “disease progression in PSPRS mental behavior domain” value (PSP patients [5]; females, over 52 weeks) was “almost halted”, the “SEADL change from baseline vs placebo” value (PSP patients [5]; females, starting at week 39 and continuing on 52, P=0.0187 and P=0.00537) was “significant protective effect” and the “effect on oculomotor activities (PSPRS domain)” value (PSP patients [5]; females, week 6, P=0.0127) was “transient adverse effect”. The “GDS score (geriatric depression) compared to placebo” value (PSP patients [5]; females, week 52, Wilcoxon, P=0.023) was “improved significantly”, the “bulbar domain of the PSPRS (dysarthria, dysphagia) vs placebo” value (PSP patients [5]; females, week 52, P=0.0222) was “significant protective effect” and the “limb motor skills (PSPRS domain) vs placebo” value (PSP patients [5]; females, P=0.0838) was “partially protected”. The “ventricular volume change vs baseline ventricular volume” value (PSP patients [5]; males, 30 mg twice daily intranasally, 52 weeks) was “no drug effects”, the “PSPRS change compared to the placebo group” value (PSP patients [5]; [8]) was “significant increase in PSPRS” and the “SEADL change compared to the placebo group” value (PSP patients [5]; [8]) was “decrease in SEADL”. The “percent of baseline ventricular volume change with age vs placebo” value (PSP patients [5]; men, 30 mg twice daily intranasally, 52 weeks) was “No differences”, the “percent of baseline ventricular volume change with age vs placebo” value (PSP patients [5]; men, 30 mg twice daily intranasally, 52 weeks, listed as NAP peptide) was “not observed in males” and the “phosphorylated Tau in the cerebrospinal fluid (CSF) compared to placebo” value (PSP patients [5]; [9]) was “trends in total Tau and phosphorylated Tau reduction”. The “total Tau in the cerebrospinal fluid (CSF) compared to placebo” value (PSP patients [5]; [9]) was “trends in total Tau and phosphorylated Tau reduction”, the “percent of baseline ventricular volume change with age vs placebo” value (PSP patients [5]; women (older woman patients), 30 mg twice daily intranasally, 52 weeks) was “significant neuroprotective effect” and the “percent of baseline ventricular volume change with age vs placebo” value (PSP patients [5]; women (older woman patients), 30 mg twice daily intranasally, 52 weeks, listed as NAP peptide) was “reduced the increase in the size of brain ventricles”. For the same molecule, the “UPSA change, average” value ([6]; men, 5 mg daily) was 7.4 points, the “effect on UPSA” value ([6]; men, 5 mg daily, especially after 6 weeks) was “effective” and the “effect on UPSA” value ([6]; men, 15 mg twice daily (30 mg/day), 12 weeks) was “significant results”. The “effect on UPSA” value ([6]; men, 15 mg twice daily (30 mg/day), 12 weeks, listed as NAP) was “significant improvement”, the “UPSA change, mean” value ([6]; women, 5 mg daily, 12 weeks) was 14.9 points and the “effect on UPSA” value ([6]; women, 5 mg daily, after 6 and 12 weeks) was “beneficial”. For the same molecule, the UPSA improvement ([6]; women, 5 mg daily, after 12 weeks) was 15%, the “effect on UPSA” value ([6]; women, 15 mg twice daily (30 mg/day), week 12, vs 5 mg/day P=0.002) was “significantly lower effect” and the “effect on UPSA” value ([6]; women, 15 mg twice daily (30 mg/day), week 12, vs 5 mg/day P=0.002, listed as NAP) was “not observed”. For the same molecule, the “Hace1 gene/mRNA intron retention event (aberrant alternative splicing)” value (Hace1; ADNP mutated HTR males, brain hippocampal samples) was “corrected”, the “Hace1 expression as a consequence of NAP treatment” value (Hace1; male vs female Adnp mutated mice, hippocampus) was “sex-specific opposite expression” and the gait deficits [7] was “ameliorated”.
